Experimental data as given in patent US9113629B2, “4-amino-6-(4-substituted-phenyl)-picolinates and 6-amino-2-(4-substituted-phenyl)-pyrimidine-4-carboxylates and their use as herbicides” (DOW AGROSCIENCES LLC, priority 2013, dated 2015).
Like-named read-outs stand apart in the source and are kept apart here.

Key:
[1] = tested on: Key Broadleaf Weed and Crop Species; assay: Post-emergent Test II herbicidal activity (Table 5); format: in vivo; conditions: post-emergence, 336 h, post-emergent, 14 days after application; for pest or weed control at 70 g/ha: application rate 70 g ai/ha; for pest or weed control at 140 g/ha: application rate 140 g ai/ha
How it was run: (§1)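 Greenhouse-grown plants at first or second true leaf stage were sprayed post-emergence with compound in acetone/DMSO-based aqueous spray containing crop oil concentrate and surfactant, at 187 L/ha, highest rate plus ½× to 1/16× dilutions. After 14 d, injury was scored visually versus untreated plants, 0 (none) to 100% (complete kill).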

[2] = tested on: Key Grass and Sedge Weeds as well as Grass Crops; assay: Post-emergent Test II herbicidal activity (Table 6); format: in vivo; conditions: post-emergence, 336 h; for pest or weed control at 70 g/ha: application rate 70 g ai/ha; for pest or weed control at 140 g/ha: application rate 140 g ai/ha
How it was run: as §1

[3] = ABUTH: velvetleaf (Abutilon theophrasti), read-out: Visual Growth Reduction (%) 14 Days After Application, ABUTH
[4] = AMARE: redroot pigweed (Amaranthus retroflexus), read-out: Visual Growth Reduction (%) 14 Days After Application, AMARE
[5] = BRSNN: oilseed-rape, canola (Brassica napus), read-out: Visual Growth Reduction (%) 14 Days After Application, BRSNN
[6] = CHEAL: lambsquarters (Chenopodium album), read-out: Visual Growth Reduction (%) 14 Days After Application, CHEAL
[7] = EPHHL: wild poinsettia (Euphorbia heterophylla), read-out: Visual Growth Reduction (%) 14 Days After Application, EPHHL
[8] = HELAN: sunflower (Helianthus annuus), read-out: Visual Growth Reduction (%) 14 Days After Application, HELAN
[9] = VIOTR: wild pansy (Viola tricolor), read-out: Visual Growth Reduction (%) 14 Days After Application, VIOTR
[10] = CYPES: yellow nutsedge (Cyperus esculentus), read-out: Visual Growth Reduction (%) 14 Days After Application, CYPES
[11] = DIGSA: crabgrass (Digitaria sanguinalis), read-out: Visual Growth Reduction (%) 14 Days After Application, DIGSA
[12] = ECHCG: barnyardgrass (Echinochloa crus-galli), read-out: Visual Growth Reduction (%) 14 Days After Application, ECHCG
[13] = ORYSA: rice (Oryza sativa), read-out: Visual Growth Reduction (%) 14 Days After Application, ORYSA
[14] = SETFA: giant foxtail (Setaria faberi), read-out: Visual Growth Reduction (%) 14 Days After Application, SETFA
[15] = SORVU: grain sorghum (Sorghum vulgare), read-out: Visual Growth Reduction (%) 14 Days After Application, SORVU
[16] = TRZSS (wheat, Triticum aestivum), read-out: Visual Growth Reduction (%) 14 Days After Application, TRZSS
[17] = ZEAMX: maize, corn (Zea mays), read-out: Visual Growth Reduction (%) 14 Days After Application, ZEAMX

Molecule Nc1cc(-c2cc(F)c(C(F)F)cc2F)nc(C(=O)O)c1Cl [Compound 174] has a melting point of 171.8 to 173.9 °C, a pest or weed control at 70 g/ha [1, 3] of 75 to 84% and a pest or weed control at 140 g/ha [1, 3] of 75 to 84%. The pest or weed control at 70 g/ha [1, 4] was 95 to 100%, the pest or weed control at 140 g/ha [1, 4] was 95 to 100% and the pest or weed control at 70 g/ha [1, 5] was 95 to 100%. For the same molecule, the pest or weed control at 140 g/ha [1, 5] was 95 to 100%, the pest or weed control at 70 g/ha [1, 6] was 95 to 100% and the pest or weed control at 140 g/ha [1, 6] was 95 to 100%. The pest or weed control at 70 g/ha [1, 7] was 95 to 100%, the pest or weed control at 140 g/ha [1, 7] was 95 to 100% and the pest or weed control at 70 g/ha [1, 8] was 95 to 100%. The pest or weed control at 140 g/ha [1, 8] was 95 to 100%, the pest or weed control at 70 g/ha [1, 9] was 45 to 59% and the pest or weed control at 140 g/ha [1, 9] was 60 to 74%. It also gave a pest or weed control at 70 g/ha [2, 10] of 60 to 74%, a pest or weed control at 140 g/ha [2, 10] of 85 to 94% and a pest or weed control at 70 g/ha [2, 11] of 0 to 29%. For the same molecule, the pest or weed control at 140 g/ha [2, 11] was 45 to 59%, the pest or weed control at 70 g/ha [2, 12] was 60 to 74% and the pest or weed control at 140 g/ha [2, 12] was 85 to 94%. The pest or weed control at 70 g/ha [2, 13] was 0 to 29%, the pest or weed control at 140 g/ha [2, 13] was 0 to 29% and the pest or weed control at 70 g/ha [2, 14] was 0 to 29%. For the same molecule, the pest or weed control at 140 g/ha [2, 14] was 45 to 59%, the pest or weed control at 70 g/ha [2, 15] was 0 to 29% and the pest or weed control at 140 g/ha [2, 15] was 0 to 29%. The pest or weed control at 70 g/ha [2, 16] was 0 to 29%, the pest or weed control at 140 g/ha [2, 16] was 0 to 29% and the pest or weed control at 70 g/ha [2, 17] was 0 to 29%. For the same molecule, the pest or weed control at 140 g/ha [2, 17] was 0 to 29%.
